For assay [1], the system named is Staphylococcus aureus. Nature of the assay: Growth inhibition of Staphylococcus aureus ATCC 29213 at 1000 uM after 16 hrs by broth microdilution method. It is filed as functional. The note with it: ATCC 29213, 16 h, read-out: GI.
The test system of assay [2] is Staphylococcus aureus. Kind of assay: Growth inhibition of Staphylococcus aureus ATCC 29213 at 820 uM after 16 hrs by broth microdilution method. It is filed as functional. The note with it: ATCC 29213, 16 h, read-out: GI.
Assay [3] has as its target T1, Type III pantothenate kinase (Bacillus anthracis, UniProt Q81VX4).
T1 sequence (Q81VX4 whole entry): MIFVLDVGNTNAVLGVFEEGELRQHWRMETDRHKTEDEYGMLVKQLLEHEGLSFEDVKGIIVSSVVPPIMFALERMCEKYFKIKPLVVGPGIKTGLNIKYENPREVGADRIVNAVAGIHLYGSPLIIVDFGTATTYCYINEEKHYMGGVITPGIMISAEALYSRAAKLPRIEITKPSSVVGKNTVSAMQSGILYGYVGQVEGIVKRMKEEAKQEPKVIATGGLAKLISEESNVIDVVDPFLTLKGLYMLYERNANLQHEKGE
Nature of the assay: Inhibition of Bacillus anthracis pantothenate kinase 3.

Assay [4] deals with Staphylococcus aureus. Kind of assay: Growth inhibition of Staphylococcus aureus ATCC 29213 at 860 uM after 16 hrs by broth microdilution method. The class given is functional. The note with it: ATCC 29213, 16 h, read-out: GI.
For assay [5], the system named is Staphylococcus aureus. Nature of the assay: Growth inhibition of Staphylococcus aureus ATCC 29213 at 1540 uM after 16 hrs by broth microdilution method. The class given is functional. The note with it: ATCC 29213, 16 h, read-out: GI.
Assay [6] has as its system Staphylococcus aureus. Kind of assay: Growth inhibition of Staphylococcus aureus ATCC 29213 at 1230 uM after 16 hrs by broth microdilution method. The note with it: ATCC 29213, 16 h, read-out: GI. It is filed as functional.
Assay [7] has as its system Staphylococcus aureus. Nature of the assay: Antibacterial activity against Staphylococcus aureus ATCC 29213 after 16 hrs by broth microdilution method. The note with it: ATCC 29213, 16 h. The class given is functional.
The test system of assay [8] is Staphylococcus aureus. Kind of assay: Growth inhibition of Staphylococcus aureus ATCC 29213 at 550 uM after 16 hrs by broth microdilution method. The class given is functional. The note with it: ATCC 29213, 16 h, read-out: GI.

≈ marks a conversion by molar mass, not a printed value.

`CC(C)(CO)[C@@H](O)C(=O)NCCCC(=O)O` [HOPANTENIC ACID]: the inhibition of growth at 1000 µM in assay [1] stood at 87%.
Take `CCCCCc1cn(CCNC(=O)[C@H](O)C(C)(C)CO)nn1`: the inhibition of growth at 820 µM in assay [2] came out at 72%.
Take `Nc1ncnc2c1ncn2[C@@H]1O[C@H](Cn2cc(CO[C@@H]3O[C@H](CO)[C@H](O)[C@H](O)[C@H]3O)nn2)[C@@H](O)[C@H]1O`: the inhibition constant Ki in assay [3] worked out at 164 µM.
`CC(C)(CO)[C@@H](O)C(=O)NCC(=O)O`: the inhibition of growth at 1000 µM in assay [1] was found to be 18%.
Turning to `CCCCCn1cc(CNC(=O)[C@H](O)C(C)(C)CO)nn1`, the inhibition of growth at 860 µM in assay [4] was -5%.
With `CC(C)(CO)[C@@H](O)C(=O)NCc1cn(CCc2ccccc2)nn1`, the inhibition of growth at 1540 µM in assay [5] stood at 2%.
In the case of `COC(=O)CCCNC(=O)[C@H](O)C(C)(C)CO`, the inhibition of growth at 1000 µM in assay [1] amounted to 16%.
With `O=C(O)CCNC(=O)[C@H](O)CCO`, the inhibition of growth at 1230 µM in assay [6] turned out to be 9%.
With `CCCCCNC(=O)CCNC(=O)[C@H](O)C(C)(C)CO`, 14 µM (≈ 4.04 µg/mL) was the least that counted as inhibitory in assay [7] (MIC).
With `CCCc1cn(CCCNC(=O)[C@H](O)C(C)(C)CO)nn1`, in assay [4], the inhibition of growth at 860 µM was -13%.
Take `COC(=O)CNC(=O)[C@H](O)C(C)(C)CO`: the inhibition of growth at 1000 µM in assay [1] came out at 84%.
As to `CCCCn1cc(CCNC(=O)[C@H](O)C(C)(C)CO)nn1`, the inhibition of growth at 550 µM in assay [8] amounted to 86%.
Turning to `COC(=O)CCNC(=O)[C@H](O)C(C)(C)CO`, the inhibition of growth at 1000 µM in assay [1] amounted to 15%.
Take `CCCCCn1cc(CCNC(=O)[C@H](O)C(C)(C)CO)nn1`: in assay [4], the inhibition of growth at 860 µM stood at 99%.

(Values after ChEMBL document CHEMBL4261651, “Probing the ligand preferences of the three types of bacterial pantothenate kinase” (Bioorg Med Chem, 2018).)
